Entries after “also recorded” stand apart in the source; their conditions may differ. Like-named read-outs stand apart in the source and are kept apart here.
How the values were obtained:
[1] = biological target: β-N-acetylglucosaminidase; conditions: literature value (Wong et al. 1995); read-out: Ki as inhibitor of β-N-acetylglucosaminidase; cited from earlier work
α-fucosidase = biological target: T1, α-fucosidase (Bos taurus, UniProt Q2KIM0); conditions: literature value (Fleet et al. 1985); read-out: Ki as inhibitor of α-fucosidase; cited from earlier work
T1 sequence (Q2KIM0 23-468): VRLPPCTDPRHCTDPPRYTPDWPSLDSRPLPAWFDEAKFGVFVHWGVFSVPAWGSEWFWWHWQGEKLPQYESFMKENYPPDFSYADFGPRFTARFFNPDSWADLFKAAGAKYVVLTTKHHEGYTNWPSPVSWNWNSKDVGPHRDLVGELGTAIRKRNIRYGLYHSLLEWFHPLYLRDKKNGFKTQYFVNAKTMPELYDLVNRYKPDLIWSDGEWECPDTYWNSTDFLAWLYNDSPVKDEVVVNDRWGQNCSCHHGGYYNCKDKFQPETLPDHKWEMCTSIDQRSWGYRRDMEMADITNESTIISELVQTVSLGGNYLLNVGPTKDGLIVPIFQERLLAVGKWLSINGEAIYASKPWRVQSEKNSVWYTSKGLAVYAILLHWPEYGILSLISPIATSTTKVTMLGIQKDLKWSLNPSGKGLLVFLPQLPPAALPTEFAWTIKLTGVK

β-galactosidase [2] = conditions: read-out: Ki as inhibitor of β-galactosidase; literature value (Bernotas et al. 1987); cited from earlier work
[3] = biological target: β-N-acetylglucosaminidase; test: Glycosidase inhibition analysis, β-N-acetylglucosaminidase; type: biochemical; conditions: read-out: Ki as inhibitor of β-N-acetylglucosaminidase
Method: (§1) Inhibition analyses were performed at 37° C. in 0.1 M HEPES buffer, pH=6.8, except for α-fucosidase (assayed at 37° C. in 50 mM sodium acetate buffer, pH 6.0). The amount of enzyme added in each assay was 0.05 units (0.1 units for β-galactosidase and α-fucosidase). […] Data were collected and fitted to a Michaelis-Menten curve by using the program HyperCleland for enzyme kinetics analysis (Cleland, W. W. Methods Enzymol. 1979, 63, 103).

HIV protease = biological target: T2, HIV protease (Human immunodeficiency virus type 1 group M subtype B, UniProt P03369); type: biochemical, HIV-1
T2 construct: a backbone engineered HIV-1 protease was prepared by total synthesis; made in house; host or cells: total chemical synthesis (no expression host)
Method: For determination of IC50 values for HIV protease, a backbone engineered HIV-1 protease was prepared by total synthesis (Schnolzer et al. Science 1992, 256, 221) 450 nM Final concentration of the protease was added to a solution (152 μL final volume) containing tetrahydroxyazepane (inhibitor), 28 μM fluorogenic peptide substrate (Abz-Thr-Ile-Phe-(p-NO2)-Gln-Arg-NH2) (Tith et al. Int. J. Peptide Protein Res. 1990, 36, 544; Slee, et al. J. Am. Chem. Soc. 1995, 117, 11867) and 1.8% dimethyl sulfoxide in assay buffer: 100 mM MES buffer containing 0.5 mg/mL BSA (bovine serum album) at pH 5.5. A Km of 37±8 μM was reported for the synthetic HIV protease against the above fluorogenic substrate. The solution was mixed and incubated over 5 minutes at 37° C. during which time the rate of substrate cleavage was monitored by continuously recording the change in fluorescence of the assay solution. An excitation filter of 325 nm and an emission filter of 420 nm were used. For each inhibitor concentration, three measurements were carried out.

glycosidases = test: Glycosidase inhibition analysis, panel of glycosidases; type: biochemical
Method: as §1

β-galactosidase [4] = test: Glycosidase inhibition analysis, β-galactosidase; type: biochemical; conditions: read-out: Ki as inhibitor of β-galactosidase
Method: as §1

FIV protease = biological target: T3, FIV protease (Feline immunodeficiency virus, UniProt P16088); test: FIV protease inhibition, fluorogenic peptide substrate; type: biochemical
T3 construct: enzymatic activity of recombinantly derived FIV protease; made in house
Method: The inhibitory effects of compounds 60a, 60b, 64a, 64b, 65a, and 65b on the enzymatic activity of recombinantly derived FIV protease (Slee et al. J. Am. Chem. Soc. 1995, 117, 11867) were studied using a fluorogenic assay based on the enzymatic cleavage of a novel peptide based substrate [Arg-Ala-Leu-Thr-Lys(aminobenzyl)-[…]. Inhibition studies were carried out at a single substrate concentration (20 μM) in a 50 mM sodium citrate/100 mM sodium phosphate buffer (pH 5.3) containing 2% DMSO and 1M sodium chloride. The same wavelengths were used for detections. […] IC50 values were determined by least squares analysis of Dixon Plots (Dixon, M. J. Biochem. 1953, 55, 170).

Row | Structure (SMILES) | inhibition of the HIV protease (in words) (HIV protease) | inhibition of the glycosidases (in words) (glycosidases) | also measured
1 | CC(=O)N1C[C@H](O)[C@@H](O)[C@H](O)[C@H]1CO [1-deoxy-N-acetylglucojirimycin] |  |  | Ki [1]: 9.8 µM
2 | C[C@@H]1NC[C@@H](O)[C@H](O)[C@@H]1O [1-deoxyfucojirimycin] |  |  | Ki (α-fucosidase): 0.005 µM
3 | OC[C@H]1NC[C@H](O)[C@@H](O)[C@H]1O [1-deoxygalactojirimycin] |  |  | Ki (β-galactosidase [2]): > 1000 µM
4 | OC1CNCC(O)C(O)C1O [Compound 3, (3R,4R,5R,6R)-tetrahydroxyazepane] | not inhibitors; also recorded: did not show inhibitory activities |  | Ki [3]: 4.6 µM
5 | O[C@H]1[C@H](O)[C@@H](O)CNC[C@@H]1O [Compound 6, (3S,4R,5R,6S)-3,4,5,6-Tetrahydroxyazepane] | not inhibitors; also recorded: did not show inhibitory activities | inhibits all glycosidases | Ki (β-galactosidase [4]): 6.5 µM
6 | O[C@H]1[C@H](O)[C@H](O)CN(Cc2ccccc2)C[C@H]1O [Compound 7, (3R,4R,5R,6R)-N-Benzyl-3,4,5,6-tetrahydroxyazepane] | not inhibitors | does not improve inhibition activity except in the case of α-fucosidase | 
7 | O[C@H]1[C@H](O)[C@@H](O)CN(Cc2ccccc2)C[C@@H]1O [Compound 8, (3S,4R,5R,6S)-N-Benzyl-3,4,5,6-tetrahydroxyazepane] | not inhibitors | does not improve inhibition activity except in the case of α-fucosidase | 
8 | CO[C@@H]1CN[C@H](CO)[C@@H](O)[C@H]1O [Compound 28, 2-O-methyl-1-deoxy-D-mannojirimycin] |  | None of these two azasugars exhibited significant inhibition | 
9 | CO[C@H]1CN[C@@H](CO)[C@H](O)[C@@H]1O [Compound 29, 2-O-methyl-1-deoxy-L-mannojirimycin] |  | None of these two azasugars exhibited significant inhibition | 
10 | O[C@@H]1[C@@H](O)[C@@H](OCc2cccc(F)c2)CNC[C@@H]1OCc1cccc(F)c1 [Compound 60a, (3S,4R,5R,6S)-3,6-di-O-(3′-fluorobenzyl)-3,4,5,6-tetrahydroxyazepane] | inhibit | not inhibitors | IC50 against FIV protease (FIV protease): inceased compared to their inhibitory activity to the HIV protease; inhibition of FIV protease (in words) (FIV protease): active
11 | O[C@@H]1[C@@H](O)[C@@H](OCc2cc(F)cc(F)c2)CNC[C@@H]1OCc1cc(F)cc(F)c1 [Compound 60b, (3S,4R,5R,6S)-3,6-di-O-(3′,5′-difluorobenzyl)-3,4,5,6-tetrahydroxyazepane] | inhibit | not inhibitors | IC50 against FIV protease (FIV protease): inceased compared to their inhibitory activity to the HIV protease; inhibition of FIV protease (in words) (FIV protease): active; Ki (HIV protease): ~350 µM
12 | CN1C[C@H](OCc2cccc(F)c2)[C@H](O)[C@@H](O)[C@@H](OCc2cccc(F)c2)C1 [Compound 64a, (3S,4R,5R,6S)-3,6-di-O-(3′-Fluorobenzyl)-N-methyl-3,4,5,6-tetrahydroxyazepane] | inhibit | not inhibitors | 
13 | CN1C[C@H](OCc2cc(F)cc(F)c2)[C@H](O)[C@@H](O)[C@@H](OCc2cc(F)cc(F)c2)C1 [Compound 64b, (3S,4R,5R,6S)-3,6-di-O-(3′,5′-difluorobenzyl)-N-methyl-3,4,5,6-tetrahydroxyazepane] | inhibit | not inhibitors | 
14 | C[N+]1([O-])C[C@H](OCc2cccc(F)c2)[C@H](O)[C@@H](O)[C@@H](OCc2cccc(F)c2)C1 (stereo partly drawn) [Compound 65a, (3S,4R,5R,6S)-3,6-di-O-(3′-Fluorobenzyl)-N-methyl-3,4,5,6-tetrahydroxyazepane N-oxide] | inhibit | not inhibitors | 
15 | C[N+]1([O-])C[C@H](OCc2cc(F)cc(F)c2)[C@H](O)[C@@H](O)[C@@H](OCc2cc(F)cc(F)c2)C1 (stereo partly drawn) [Compound 65b, (3S,4R,5R,6S)-3,6-di-O-(3′,5′-difluorobenzyl)-N-methyl-3,4,5,6-tetrahydroxyazepane N-oxide] | inhibit | not inhibitors | 
